In ChEMBL document CHEMBL3621058, “Synthesis and structure-activity studies of the V-ATPase inhibitor saliphenylhalamide (SaliPhe) and simplified analogs” (Bioorg Med Chem Lett, 2015):
The source made the active and inactive calls. No cut-off for these calls is given here.

Tests used:
[1] = Inhibition of purified reconstituted bovine brain V-ATPase; set-up: species or system Bos taurus
HCC4017 = assay: Growth inhibition of human HCC4017 cells assessed as reduction in cell viability at 0.1 nM to 10 uM; type: functional
[2] = Inhibition of V-ATPase (unknown origin); set-up: species or system Homo sapiens
Bos taurus = species: Bos taurus; assay: Inhibition of purified reconstituted bovine brain V-ATPase at 2 uM

Row | SMILES | IC50 [1] [nM] | inhibition (Bos taurus) | growth inhibition (GI) (HCC4017) | IC50 [2] [nM]
1 | CC/C=C\C=C/C(=O)N/C=C/C[C@H]1C[C@@H](O)[C@@H](C)C/C=C/Cc2cccc(O)c2C(=O)O1 [SALICYLIHALAMIDE A] |  |  |  | < 1
2 | Nc1cccc2c1C(=O)O[C@@H](C/C=C/NC(=O)C#Cc1ccccc1)C[C@@H](O)CC/C=C/C2 | 300 |  | inactive | 
3 | O=C(C#Cc1ccccc1)N/C=C/C[C@H]1C[C@@H](O)CC/C=C/Cc2cc(O)ccc2C(=O)O1 |  | inactive | inactive | 
4 | O=C(C#Cc1ccccc1)N/C=C/C[C@H]1C[C@@H](O)CC/C=C/Cc2cccc([N+](=O)[O-])c2C(=O)O1 | 1000 |  | inactive | 
5 | O=C(C#Cc1ccccc1)N/C=C/C[C@H]1C[C@@H](O)CC/C=C/Cc2cc(F)ccc2C(=O)O1 | 500 |  | inactive | 
6 | O=C(C#Cc1ccccc1)N/C=C/C[C@H]1C[C@@H](O)CC/C=C/Cc2cccc(O)c2C(=O)N1 | 3 |  | Active | 
7 | C[C@H]1C/C=C/Cc2cccc(O)c2C(=O)O[C@@H](C/C=C/NC(=O)C#Cc2ccccc2)C[C@H]1O [SALIPHENYLHALAMIDE] | 1 |  | Active | 

Further compounds by falling IC50 [1], results first:

Row | IC50 [1] [nM] | inhibition (Bos taurus) | SMILES | growth inhibition (GI) (HCC4017) | IC50 [2] [nM]
8 | 1000 |  | O=C(C#Cc1ccccc1)N/C=C/C[C@H]1C[C@@H](O)CC/C=C/Cc2cccc(F)c2C(=O)O1 | inactive | 
9 | 500 |  | O=C(C#Cc1ccccc1)N/C=C/C[C@H]1C[C@@H](O)CC/C=C/Cc2cccc(C(F)F)c2C(=O)O1 | inactive | 
10 | 300 |  | O=C(C#Cc1ccccc1)N/C=C/C[C@H]1C[C@@H](O)CC/C=C/Cc2cc([N+](=O)[O-])ccc2C(=O)O1 | inactive | 
11 | 5 |  | O=C(C#Cc1ccccc1)N/C=C/C[C@H]1C[C@@H](O)CC/C=C/Cc2cccc(O)c2C(=O)O1 | Active | 
